The results in this text go back to patent publication US20250346571A1, “BICYCLIC DERIVATIVE PARP INHIBITOR AND USE THEREOF” (XIZANG HAISCO PHARMACEUTICAL CO., LTD., priority 2022, published 2025).

The structures appear in SMILES notation. A value given as a limit tells only on which side of the number the result lay.

Data set [1] in a line: Pharmacokinetic test in monkeys. It counts as in vivo, cynomolgus monkeys. As for the experimental part:
6.1 Experimental animal: male cynomolgus monkeys, 3-5 kg, 3-6 years old, 4 monkeys/compound, purchased from Suzhou Xishan Biotechnology Inc.
6.2 Test method: On the day of the experiment, 8 monkeys were randomly grouped according to their body weights. The animals were fasted with water available for 14 to 18 h one day before the administration, and were fed 4 h after the administration.
(§1) Before and after the administration, 1.0 mL of blood was taken from the limb veins and placed in an EDTAK2 centrifuge tube. The blood was centrifuged at 5000 rpm and 4° C. for 10 min to collect plasma. The blood collection time points for the intravenous administration group were 0, 5 min, 15 min, 30 min, 1 h, 2 h, 4 h, 6 h, 8 h, 10 h, 12 h, 24 h and 48 h. Before analysis and detection, all samples were stored at −80° C. The samples were analyzed quantitatively by LC-MS/MS.

Data set [2] has as its system MDA-MB-436 cells. In words: MDA-MB-436 cell activity test (CellTiter-Glo, 7 days). It counts as cell-based. The conditions noted are these: Homo sapiens. As for the experimental part: Breast tumor cells MDA-MB-436 were purchased from ATCC, the culture medium was Leibovitz's L-15+10% FBS, and the cells were cultured in a CO2-free incubator at 37° C. On day 1, the cells in the exponential growth phase were collected, and the cell suspension was adjusted to 4000 cells/135 μL with the culture medium. 135 μL of the cell suspension was added to each well of a 96-well cell culture plate and incubated overnight. On day 2, compounds at different concentrations were added, and the plate was placed in the incubator and incubated for 7 days. After the incubation was completed, according to operation instructions for a CellTiter-Glo kit (Promega, G7573), 75 μL of CTG solution, which was already pre-melted and equilibrated to room temperature, was added to each well, and the mixture was uniformly mixed for 2 min using a microplate shaker. The plate was placed at room temperature for 10 min, and then […] were measured using an Envision2104 plate reader (PerkinElmer). The inhibition rate was calculated using formula (1), where RLUcompound was the readout of the drug treated group, RLUcontrol was the average value of the vehicle control group, and RLUblank was the average value of the cell-free well. The IC50 value was calculated using GraphPad Prism software
For orientation: ATP-based viability assays read luminescence as a measure of living cells.

In data set [3] the target is PARP-1 enzyme (Homo sapiens (Human), UniProt P09874). The data set can be described thus: PARP-1 enzyme activity test (chemical fluorescence detection kit, BPS Bioscience). It counts as biochemical. The conditions noted are these: grades; read-out: PARP-1 enzyme activity IC50. As for the experimental part:
PARP-1 chemical fluorescence detection kit was purchased from BPS Bioscience. The histone solution in the kit was diluted 5× with 1×PBS, and 25 μL of the diluted histone solution was added to a microwell plate and incubated overnight at 4° C. After the incubation, the plate was washed three times with PBST (0.05% Tween-20). 100 μL of the blocking solution was added to the microwell plate and incubated at 25° C. for 90 minutes. After the incubation was completed, the plate was washed three times with PBST. 2.5 μL of compounds at different concentrations diluted in test buffer and 12.5 μL of substrate mixed solution (1.25 μL 10×PARP test buffer; 1.25 μL 10×PARP test mixed solution; 2.5 μL Activated DNA, 7.5 μL double-distilled water) were added to the microwell plate. The PARP-1 enzyme was diluted to 2 ng/μL, […] was added to the microwell plate, and the reaction system was incubated at 25° C. for 60 minutes.
After the incubation was completed, the plate was washed three times with PBST. Streptavidin-HRP was diluted 50× with a blocking solution, and 25 μL of the diluent was added to the microwell plate and incubated at 25° C. for 30 minutes. After the incubation, the plate was washed three times with PBST. ELISA ECL substrate A and substrate B were uniformly mixed at a ratio of 1:1 (v/v), 50 μL of the mixture was added to the microwell plate, and the chemiluminescence value was read.
The inhibition rate was calculated according to formula 1, where RLUsample was the readout of the compound well, RLUmax was the readout of the solvent control well, and RLUmin was the readout of the control well without the PARP-1 enzyme. Curve fitting was performed by four parameters (log(inhibitor) vs. response—Variable slope) using GraphPad Prism software, and the ICso value was calculated.
Inhibition %=(1−(RLUsample−RLUmin)/(RLUmax−RLUmin))×100% (formula 1)

Data set [4] in a line: Pharmacokinetic test in rats. It counts as in vivo, SD rats. As for the experimental part: 3.1 Experimental animal: male SD rats, about 220 g, 6-8 weeks old, 6 rats/compound, purchased from Chengdu Ddossy Experimental Animals Co., Ltd.
3.2 Experimental design: on the day of the experiment, 30 SD rats were randomly grouped according to their body weights. The animals were fasted with water available for 12 to 14 h one day before the administration and were fed 4 h after the administration.
as §1, with “0.15 ml” for “1.0 mL”, “orbit of the animals under isoflurane anesthesia” for “limb veins”, “group and intragastric administration group” for “group”, “8” for “8 h, 10 h, 12 h, 24”, “24” for “48”, “h. The brain tissues were collected 24 hours after administration, rinsed with cold physiological saline to remove the residual blood on the surface, drained out and then homogenized.” for “h.”

Setting [5] is: male, cynomolgus monkey, iv, monkeys, i.v. (1 mg/kg), plasma.
Where [6] appears, read: male, SD, rat, iv, rats, i.v. 2.5 mg/kg, plasma.

Chain of PARP-1 enzyme (P09874 whole entry): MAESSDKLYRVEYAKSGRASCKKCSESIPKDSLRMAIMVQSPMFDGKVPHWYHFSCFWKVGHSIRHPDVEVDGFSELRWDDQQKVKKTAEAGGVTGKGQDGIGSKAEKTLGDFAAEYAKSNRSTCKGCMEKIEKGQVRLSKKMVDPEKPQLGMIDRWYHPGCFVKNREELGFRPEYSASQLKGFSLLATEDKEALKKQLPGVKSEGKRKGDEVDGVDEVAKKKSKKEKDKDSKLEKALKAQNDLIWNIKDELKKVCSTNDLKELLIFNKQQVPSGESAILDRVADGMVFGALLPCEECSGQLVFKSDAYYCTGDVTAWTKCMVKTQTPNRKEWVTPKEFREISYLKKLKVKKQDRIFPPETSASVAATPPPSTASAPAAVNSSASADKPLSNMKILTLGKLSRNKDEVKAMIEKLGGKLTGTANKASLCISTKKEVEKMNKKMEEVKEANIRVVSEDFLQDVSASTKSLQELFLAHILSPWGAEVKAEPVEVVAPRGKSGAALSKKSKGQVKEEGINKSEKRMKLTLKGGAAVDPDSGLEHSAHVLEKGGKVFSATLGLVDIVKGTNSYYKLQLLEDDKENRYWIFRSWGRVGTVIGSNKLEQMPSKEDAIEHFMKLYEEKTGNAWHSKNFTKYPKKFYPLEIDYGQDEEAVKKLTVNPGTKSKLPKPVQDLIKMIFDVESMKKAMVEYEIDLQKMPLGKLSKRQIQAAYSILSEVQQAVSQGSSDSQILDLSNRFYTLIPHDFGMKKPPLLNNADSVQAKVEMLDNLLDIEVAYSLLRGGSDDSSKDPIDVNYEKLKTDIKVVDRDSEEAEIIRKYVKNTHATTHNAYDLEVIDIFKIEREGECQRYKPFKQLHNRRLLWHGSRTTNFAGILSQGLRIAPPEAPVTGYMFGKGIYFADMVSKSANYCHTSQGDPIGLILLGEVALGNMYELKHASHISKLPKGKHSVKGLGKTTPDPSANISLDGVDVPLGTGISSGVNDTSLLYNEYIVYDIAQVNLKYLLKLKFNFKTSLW

`Cn1cc(C(=O)Nc2ccc(N3CCN(Cc4ccc5nc(C(F)F)c(=O)[nH]c5c4F)CC3)c(F)n2)cn1` [Compound 14, N-(5-(4-((2-(difluoromethyl)-5-fluoro-3-oxo-3,4-dihydroquinoxalin-6-yl)methyl)piperazin-1-yl)-6-fluoropyridin-2-yl)-1-methyl-1H-pyrazole-4-carboxamide]: the “pharmacokinetic characteristics in monkeys” value in data set [1] (conclusion in words) was “good pharmacokinetic characteristics”. Besides, the exposure AUC(0-t) (commonly the area under the concentration-time curve up to a stated or last time point) in data set [1] (setting [5]) was 47100 ± 6260 ng·h/mL; in data set [1] (male, cynomolgus monkey, po, monkeys, i.g. (3 mg/kg), plasma), 80100 ± 6960 ng·h/mL; in data set [4] (setting [6]), 48700 ± 4800 ng·h/mL; in data set [4] (male, SD, rat, po, rats, i.g. 10 mg/kg, plasma), 138000 ± 6650 ng·h/mL. The values for the clearance in data set [1] (setting [5]) and in data set [4] (setting [6]) were 0.348 ± 0.057 mL/min/kg and 0.859 ± 0.09 mL/min/kg, respectively. Besides, the Vd in data set [1] (male, cynomolgus monkey, iv, monkeys, i.v. (1 mg/kg), plasma, read-out: Vdss) is 0.151 ± 0.022 L/kg; in data set [4] (male, SD, rat, iv, rats, i.v. 2.5 mg/kg, plasma, read-out: Vdss) it was 0.148 ± 0.01 L/kg. Further, the bioavailability (as a rule, the share of a dose that reaches the circulation, judged against a reference dose that is usually intravenous) was 56.8 ± 4.9% in data set [1] (male, cynomolgus monkey, plasma, po, monkeys, i.g. (3 mg/kg)) and 70.9 ± 3.4% in data set [4] (male, SD, rat, plasma, po, rats, i.g. 10 mg/kg). The IC50 (as a rule, the point on the concentration scale where inhibition reaches its midpoint) in data set [2] (MDA-MB-436, 168 h, 7 days incubation) is 24.3 nM; in data set [3], less than 5 nM. In addition, the inhibition at 10 µM in data set [2] (10 μM, MDA-MB-436 cells, read-out: Max inh. % 10 μM) was found to be 73.2%. In addition, in data set [4] (conclusion in words), the “pharmacokinetic characteristics in rats” value is “good pharmacokinetic characteristics”.
